For this assay, the target named is T1, GABA A receptor α5β3γ2 (Homo sapiens, UniProt P18507+P31644).
T1 construct: expressed in transfected cells; host or cells: HEK293 cells, transiently transfected; membranes prepared
Kind of assay: [3H]flumazenil competition binding, human GABA A α5β3γ2. The settings on record: competition for [3H]flumazenil (0.5 nM) binding, HEK293 cells expressing human (transiently transfected) α5β3γ2; means of two determinations; read-out: Ki[nM] hα5. As to the method: Membrane Preparation and Binding Assay
The affinity of compounds at GABA A receptor subtypes was measured by competition for [3H]flumazenil (85 Ci/mmol; Roche) binding to HEK293 cells expressing rat (stably transfected) or human (transiently transfected) receptors of composition
Cell pellets were suspended in Krebs-tris buffer (4.8 mM KCl, 1.2 mM CaCl2, 1.2 mM MgCl2, 120 mM NaCl, 15 mM Tris; pH 7.5; binding assay buffer), homogenized by polytron for ca. 20 sec on ice and centrifuged for 60 min at 4° C. (50000 g; Sorvall, rotor: SM24=20000 rpm). The cell pellets were resuspended in Krebs-tris buffer and homogenized by polytron for ca. 15 sec on ice. Protein was measured (Bradford method, Bio-Rad) and aliquots of 1 mL were prepared and stored at −80° C.
Assays were incubated to equilibrium for 1 hour at 4° C. and harvested onto GF/C uni-filters (Packard) by filtration using a Packard harvester and washing with ice-cold wash buffer (50 mM Tris; pH 7.5). After drying, filter-retained radioactivity was detected by liquid scintillation counting. Ki values were calculated using Excel-Fit (Microsoft) and are the means of two determinations.

With `Cc1onc(-c2ccccc2)c1-c1nnc(-c2ccc(N)cc2)o1` [Example 35, 4-[5-(5-Methyl-3-phenyl-isoxazol-4-yl)-[1,3,4]oxadiazol-2-yl]-phenylamine], the Ki (usually the dissociation constant of the complex between target and ligand, obtained from inhibition or displacement) was determined as 31.2 nM. Next, `Cc1onc(-c2ccccc2)c1-c1nnc(-c2ccc(F)cc2)o1` [Example 36, 2-(4-Fluoro-phenyl)-5-(5-methyl-3-phenyl-isoxazol-4-yl)-[1,3,4]oxadiazole]: 134 nM; `Cc1onc(-c2ccccc2)c1-c1nnc(-c2ccc(N3CCSCC3)cc2)o1` [Example 37, 4-{4-[5-(5-Methyl-3-phenyl-isoxazol-4-yl)-[1,3,4]oxadiazol-2-yl]-phenyl}-thiomorpholine]: 22.9 nM; `Cc1onc(-c2ccccc2)c1-c1nnc(-c2ccc(N3CCS(=O)(=O)CC3)cc2)o1` [Example 38, 4-{4-[5-(5-Methyl-3-phenyl-isoxazol-4-yl)-[1,3,4]oxadiazol-2-yl]-phenyl}-thiomorpholine 1,1-dioxide]: 19.7 nM. Regarding `Cc1onc(-c2ccccc2)c1-c1nnc(-c2ccc(N3CC[S+]([O-])CC3)cc2)o1` [Example 39, 4-{4-[5-(5-Methyl-3-phenyl-isoxazol-4-yl)-[1,3,4]oxadiazol-2-yl]-phenyl}-thiomorpholine 1-oxide], the Ki amounted to 16.7 nM. Next, `Cc1onc(-c2ccccc2)c1-c1nnc(-c2ccncc2)o1` [Example 40, 4-[5-(5-Methyl-3-phenyl-isoxazol-4-yl)-[1,3,4]oxadiazol-2-yl]-pyridine]: 179 nM.

For `Cc1onc(-c2ccccc2)c1-c1nnc(-c2ccc(N3C[C@@H](C)O[C@@H](C)C3)cc2)o1` [Example 41, rac-(2S,6R)-2,6-Dimethyl-4-{4-[5-(5-methyl-3-phenyl-isoxazol-4-yl)-[1,3,4]oxadiazol-2-yl]-phenyl}-morpholine], the Ki turned out to be 32.5 nM. As for `Cc1onc(-c2ccccc2)c1-c1nnc(-c2ccccc2OC(F)F)o1` [Example 42, 2-(2-Difluoromethoxy-phenyl)-5-(5-methyl-3-phenyl-isoxazol-4-yl)-[1,3,4]oxadiazole], the figure is 141 nM. `Cc1onc(-c2ccccc2)c1-c1nnc(-c2ccccc2OC(F)(F)F)o1` [Example 43, 2-(5-Methyl-3-phenyl-isoxazol-4-yl)-5-(2-trifluoromethoxy-phenyl)-[1,3,4]oxadiazole]: the Ki was 131 nM. As for `Cc1onc(-c2ccccc2)c1-c1nnc(-c2ccnc3ccccc23)o1` [Example 44, 4-[5-(5-Methyl-3-phenyl-isoxazol-4-yl)-[1,3,4]oxadiazol-2-yl]-quinoline], the figure is 88.9 nM. As for `Cc1onc(-c2ccccc2)c1-c1nnc(-c2cccc(F)c2)o1` [Example 45, 2-(3-Fluoro-phenyl)-5-(5-methyl-3-phenyl-isoxazol-4-yl)-[1,3,4]oxadiazole], the figure is 100 nM; as for `Cc1onc(-c2ccccc2)c1-c1nnc(-c2ccccc2OCc2ccccc2)o1` [Example 46, 2-(2-Benzyloxy-phenyl)-5-(5-methyl-3-phenyl-isoxazol-4-yl)-[1,3,4]oxadiazole], 255 nM. Turning to `Cc1onc(-c2ccccc2)c1-c1nnc(-c2ccc(N3CCCCC3)cc2)o1` [Example 47, 1-{4-[5-(5-Methyl-3-phenyl-isoxazol-4-yl)-[1,3,4]oxadiazol-2-yl]-phenyl}-piperidine], the Ki worked out at 46.9 nM. Take `Cc1onc(-c2ccccc2)c1-c1nnc(-c2ccc(N)nc2)o1` [Example 48, 5-[5-(5-Methyl-3-phenyl-isoxazol-4-yl)-[1,3,4]oxadiazol-2-yl]-pyridin-2-ylamine]: the inhibition constant (Ki) was determined as 38.9 nM.

Regarding `COc1cc(C(F)(F)F)ccc1-c1nnc(-c2c(-c3ccccc3)noc2C)o1` [Example 49, 2-(2-Methoxy-4-trifluoromethyl-phenyl)-5-(5-methyl-3-phenyl-isoxazol-4-yl)-[1,3,4]oxadiazole], the Ki is 39.7 nM. As for `Cc1onc(-c2ccccc2)c1-c1nnc(-c2ccc(C(F)(F)F)cc2)o1` [Example 50, 2-(5-Methyl-3-phenyl-isoxazol-4-yl)-5-(4-trifluoromethyl-phenyl)-[1,3,4]oxadiazole], the figure is 250 nM; as for `Cc1onc(-c2ccccc2)c1-c1nnc(-c2ccc3c(c2)n(C)c(=O)n3C)o1` [Example 51, 1,3-Dimethyl-5-[5-(5-methyl-3-phenyl-isoxazol-4-yl)-[1,3,4]oxadiazol-2-yl]-1,3-dihydro-benzoimidazol-2-one], 128 nM.

For the compound `Cc1onc(-c2ccccc2)c1-c1nnc(-c2ccc(OC(F)F)cc2)o1` [Example 52, 2-(4-Difluoromethoxy-phenyl)-5-(5-methyl-3-phenyl-isoxazol-4-yl)-[1,3,4]oxadiazole], the Ki is 58.9 nM.

Consider `CC(C)c1onc(-c2ccccc2)c1-c1nnc(-c2ccc3c(c2)n(C)c(=O)n3C)o1` [Example 53, 5-[5-(5-Isopropyl-3-phenyl-isoxazol-4-yl)-[1,3,4]oxadiazol-2-yl]-1,3-dimethyl-1,3-dihydro-benzoimidazol-2-one], for which the Ki was 2.3 nM. Next, `Cc1onc(-c2ccccc2)c1-c1nnc(-c2ccnc(Cl)c2)o1` [Example 54, 2-Chloro-4-[5-(5-methyl-3-phenyl-isoxazol-4-yl)-[1,3,4]oxadiazol-2-yl]-pyridine]: 88.4 nM. `Cc1onc(-c2ccccc2)c1-c1nnc(-c2ccnc(N3CCOCC3)c2)o1` [Example 55, 4-{4-[5-(5-Methyl-3-phenyl-isoxazol-4-yl)-[1,3,4]oxadiazol-2-yl]-pyridin-2-yl}-morpholine]: the Ki is 324 nM. Turning to `COc1cc(N2CC[S+]([O-])CC2)ccc1-c1nnc(-c2c(-c3ccccc3)noc2C)o1` [Example 56, 4-{3-Methoxy-4-[5-(5-methyl-3-phenyl-isoxazol-4-yl)-[1,3,4]oxadiazol-2-yl]-phenyl}-thiomorpholine 1-oxide], the inhibition constant (Ki) is 2.2 nM. Next, `Cc1onc(-c2ccccc2)c1-c1nnc(-c2ccc(C#N)cc2)o1` [Example 57, 4-[5-(5-Methyl-3-phenyl-isoxazol-4-yl)-[1,3,4]oxadiazol-2-yl]-benzonitrile]: 84.2 nM; `COc1cc(-n2ccnc2C)ccc1-c1nnc(-c2c(-c3ccccc3)noc2C)o1` [Example 58, 2-[2-Methoxy-4-(2-methyl-imidazol-1-yl)-phenyl]-5-(5-methyl-3-phenyl-isoxazol-4-yl)-[1,3,4]oxadiazole]: 13.9 nM. Next, `Cc1onc(-c2ccccc2)c1-c1nnc(-c2ccc(-n3ccnc3C)cc2)o1` [Example 59, 2-[4-(2-Methyl-imidazol-1-yl)-phenyl]-5-(5-methyl-3-phenyl-isoxazol-4-yl)-[1,3,4]oxadiazole]: 30.7 nM; `CCc1onc(-c2ccccc2)c1-c1nnc(-c2ccc(F)cc2OC)o1` [Example 60, 2-(5-Ethyl-3-phenyl-isoxazol-4-yl)-5-(4-fluoro-2-methoxy-phenyl)-[1,3,4]oxadiazole]: 96 nM. As for `COc1cc(F)ccc1-c1nnc(-c2c(-c3ccccc3)noc2C(C)C)o1` [Example 61, 2-(4-Fluoro-2-methoxy-phenyl)-5-(5-isopropyl-3-phenyl-isoxazol-4-yl)-[1,3,4]oxadiazole], the figure is 17.7 nM; as for `COc1cc(NS(=O)(=O)c2cccs2)ccc1-c1nnc(-c2c(-c3ccccc3)noc2C)o1` [Example 62, Thiophene-2-sulfonic acid {3-methoxy-4-[5-(5-methyl-3-phenyl-isoxazol-4-yl)-[1,3,4]oxadiazol-2-yl]-phenyl}-amide], 42.8 nM; as for `COc1cc(NS(=O)(=O)C(C)C)ccc1-c1nnc(-c2c(-c3ccccc3)noc2C)o1` [Example 63, Propane-2-sulfonic acid {3-methoxy-4-[5-(5-methyl-3-phenyl-isoxazol-4-yl)-[1,3,4]oxadiazol-2-yl]-phenyl}-amide], 42.8 nM. Turning to `COc1cc(NC2CCOCC2)ccc1-c1nnc(-c2c(-c3ccccc3)noc2C)o1` [Example 64, {3-Methoxy-4-[5-(5-methyl-3-phenyl-isoxazol-4-yl)-[1,3,4]oxadiazol-2-yl]-phenyl}-(tetrahydro-pyran-4-yl)-amine], the Ki was found to be 4.2 nM. Take `COc1cc(NC2CCN(C)CC2)ccc1-c1nnc(-c2c(-c3ccccc3)noc2C)o1` [Example 65, {3-Methoxy-4-[5-(5-methyl-3-phenyl-isoxazol-4-yl)-[1,3,4]oxadiazol-2-yl]-phenyl}-(1-methyl-piperidin-4-yl)-amine]: the Ki was determined as 15.3 nM. Take `COc1cc(N2CCNCC2)ccc1-c1nnc(-c2c(-c3ccccc3)noc2C)o1` [Example 66, 1-{3-Methoxy-4-[5-(5-methyl-3-phenyl-isoxazol-4-yl)-[1,3,4]oxadiazol-2-yl]-phenyl}-piperazine]: the Ki is 13.4 nM.

Take `COc1cc(N2CCN(C)CC2)ccc1-c1nnc(-c2c(-c3ccccc3)noc2C)o1` [Example 67, 1-{3-Methoxy-4-[5-(5-methyl-3-phenyl-isoxazol-4-yl)-[1,3,4]oxadiazol-2-yl]-phenyl}-4-methyl-piperazine]: the Ki stood at 15.5 nM. Regarding `COc1cc(N2CCOCC2)ccc1-c1nnc(-c2c(-c3ccccc3)noc2C)o1` [Example 68, 4-{3-Methoxy-4-[5-(5-methyl-3-phenyl-isoxazol-4-yl)-[1,3,4]oxadiazol-2-yl]-phenyl}-morpholine], the Ki was determined as 4.2 nM.

These data come from patent US7956074B2, “Aryl-isoxazolo-4-yl-oxadiazole derivatives” (Hoffman-La Roche Inc., priority 2005, dated 2011).
